Experimental findings from US12559475B2, “Tetrazine compound capable of having rapid cycloaddition reaction with non-strained olefinic boronic acid and biomedical application thereof” (NANJING UNIVERSITY, priority 2024, dated 2026) are described below.

Data set [1] relates to HepG2 cells. The data set can be described thus: Toxicity (MTT cell survival) in HepG2 cells. In kind it is cell-based. Particulars: for IC50: Homo sapiens, HepG2, 48 h incubation, 1% FBS DMEM, MTT. As for the experimental part:
Toxicity of the tetrazine Tz-2, the doxorubicin prodrug DOX-VBA, the addition product, and the doxorubicin DOX were first tested.
HepG2 cells were plated in a 96-well plate and attached overnight; 1% FBS DMEM was used as a culture medium on the next day, different concentrations of Tz-2, DOX-VBA, product, and DOX were then added to the culture medium, and incubation was performed at 37° C. for 48 h; and 50 μL 1×MTT was added, the reaction continued for 4 h, DMSO was added to remove the culture medium, and cell survival rates at different concentrations were tested to calculate IC50 values (the cell survival rates were shown in FIG. 6).

The nature of data set [2]: Stability testing of tetrazine compounds in 10% FBS/DMEM (HPLC residual amount). Format: physicochemical. The settings on record: 100 µM, 2.5% DMSO. The method, then:
Specific implementation method: The tetrazine compounds were respectively dissolved in a 10% FBS/DMEM solution at a concentration of 100 µM (the solution contained 2.5% DMSO as a solubilizing agent), and residual amounts of tetrazine compounds were monitored via HPLC after 6 hours and 24 hours to analyze the stability of tetrazine compounds in a biological environment.

Data set [3] can be described thus: Reaction rate testing of tetrazine compounds and styryl boronic acid (HPLC). The settings on record: tetrazine 1 mM, styryl boronic acid 0.2 mM, methanol. As for the experimental part:
Specific implementation method: HPLC was used to test reaction rates by monitoring residual amounts of tetrazine compounds after different tetrazine compounds reacted with styryl boronic acid, where a molar concentration of the tetrazine compounds was 1 mM, and a molar concentration of styryl boronic acid was 0.2 mM, and a solvent was methanol solution.

The nature of data set [4]: Molecular release testing of tetrazine compound and styryl boronic acid derivative VBA-2 (NMR). The settings on record: Tz-2 + VBA-2, 0.02 M, deuterated DMSO:deuterated H2O=9:1, NMR. The method, then:
Specific implementation method: the tetrazine compound Tz-2 and the styryl boronic acid derivative VBA-2 were dissolved in a deuterated solution (deuterated DMSO:deuterated H2O=9:1) at a molar concentration of 0.02 M. Reactions after 5 min, 12 h and 24 h were tested using a 500 MHz a nuclear magnetic resonance analyzer, and characteristic signal peaks of reactants and products on a hydrogen spectrum were tested to assess molecular release.

One may read the IC50 as the concentration that gives 50% inhibition. Read a low IC50 as greater potency.

The compound `COc1cccc2c1C(=O)c1c(O)c3c(c(O)c1C2=O)C[C@@](O)(C(=O)CO)C[C@@H]3O[C@H]1C[C@H](N)[C@H](O)[C@H](C)O1` [DOX, doxorubicin, reference compound] registered an IC50 in data set [1] of 500 nM.
Consider `COc1ccnc(-c2nnc(-c3ccccc3)nn2)c1C` [Tz-1], for which the “residual amount of tetrazine compound” value in data set [2] (6 h) is on record as 99%; in data set [2] (24 h), 85%. The compound further displayed a k2 in data set [3] of 56 M⁻¹ s⁻¹.
Consider `COc1ccnc(-c2nnc(-c3ccccn3)nn2)c1C` [Tz-2], for which the “residual amount of tetrazine compound” value was determined as 55% in data set [2] (6 h) and 17% in data set [2] (24 h). Besides, the k2 in data set [3] is 168 M⁻¹ s⁻¹. In data set [4], the “time in which half of the benzylamine molecules were released” value was 12 h. The “toxicity (in words)” value in data set [1] (HepG2 cells) is “non-toxic”. This compound showed an IC50 in data set [1] greater than 100000 nM.
For `COc1ccnc(-c2nnc(-c3ccc(NC(=O)OC(C)(C)C)cc3)nn2)c1C` [Tz-10], the “residual amount of tetrazine compound” value in data set [2] (6 h) is given as 99%; in data set [2] (24 h), 92%. In data set [3], the k2 is 45 M⁻¹ s⁻¹.
In the same order, the values of `COc1ccnc(-c2nnc(-c3ccc(CNC(=O)OC(C)(C)C)cc3)nn2)c1C` [Tz-11] are 99%, 92% and 23 M⁻¹ s⁻¹.
In the same order, the values of `COc1c(C)cnc(-c2nnc(-c3ccccc3)nn2)c1C` [Tz-16] are 99%, 90% and 28 M⁻¹ s⁻¹.
In the same order, the values of `c1ccc(-c2nnc(-c3ccccn3)nn2)nc1` [Tz-Py, reference compound] are 35%, 1% and 1.4 M⁻¹ s⁻¹.
